# From patent US20230322723A1, “COMPOUNDS FOR SUPPRESSING EGFR MUTANT CANCER AND PHARMACEUTICAL USE THEREOF” (J2H BIOTECH INC., priority 2020, published 2023)
# Columns and labels:
# [1] = target: T1, EGFR^L858R+T790M+C797S (Homo sapiens, UniProt P00533, C797S/L858R/T790M); test: EGFR protein degradation test (Western blot) in Ba/F3 cells expressing mutant EGFR L858R+T790M+C797S (LTC); format: cell-based; conditions: compounds at 0.1 μM and 1 μM, 24 hours, Western blot with EGFR antibody
# T1 construct: expressed in transfected cells; host or cells: Ba/F3
# T1 sequence (P00533 25-1210 T790M/C797S/L858R): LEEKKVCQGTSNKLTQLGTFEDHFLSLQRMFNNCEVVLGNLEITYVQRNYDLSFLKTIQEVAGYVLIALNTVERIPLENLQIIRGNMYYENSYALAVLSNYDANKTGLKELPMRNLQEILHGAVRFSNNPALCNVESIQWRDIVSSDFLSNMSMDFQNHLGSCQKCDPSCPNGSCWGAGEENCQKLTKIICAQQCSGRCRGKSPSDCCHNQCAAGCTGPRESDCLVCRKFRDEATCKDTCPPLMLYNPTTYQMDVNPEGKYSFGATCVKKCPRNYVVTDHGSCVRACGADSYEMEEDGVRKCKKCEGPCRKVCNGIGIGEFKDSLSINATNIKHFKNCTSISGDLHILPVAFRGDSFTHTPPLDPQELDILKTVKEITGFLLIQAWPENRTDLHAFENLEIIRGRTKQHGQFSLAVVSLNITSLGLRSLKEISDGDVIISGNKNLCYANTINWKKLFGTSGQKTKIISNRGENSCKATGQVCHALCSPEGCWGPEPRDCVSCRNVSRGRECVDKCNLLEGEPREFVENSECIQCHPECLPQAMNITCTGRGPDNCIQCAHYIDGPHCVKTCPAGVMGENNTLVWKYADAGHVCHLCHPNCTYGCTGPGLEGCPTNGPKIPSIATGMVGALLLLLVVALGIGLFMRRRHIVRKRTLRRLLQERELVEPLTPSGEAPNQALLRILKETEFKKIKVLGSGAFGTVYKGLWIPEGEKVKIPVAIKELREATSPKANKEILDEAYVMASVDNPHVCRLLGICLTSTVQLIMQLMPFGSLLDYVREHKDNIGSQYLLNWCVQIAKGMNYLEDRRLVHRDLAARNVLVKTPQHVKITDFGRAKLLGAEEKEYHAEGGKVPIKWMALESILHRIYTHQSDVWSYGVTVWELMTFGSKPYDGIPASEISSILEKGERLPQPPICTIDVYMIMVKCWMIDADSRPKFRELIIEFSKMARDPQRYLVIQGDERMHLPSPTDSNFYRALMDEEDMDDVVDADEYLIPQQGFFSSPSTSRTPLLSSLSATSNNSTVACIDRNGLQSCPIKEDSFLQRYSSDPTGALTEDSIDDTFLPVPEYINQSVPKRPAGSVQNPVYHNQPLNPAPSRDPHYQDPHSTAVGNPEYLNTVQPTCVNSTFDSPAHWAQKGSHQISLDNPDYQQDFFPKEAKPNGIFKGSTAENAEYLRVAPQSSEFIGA
# Outline: (§1)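 Ba/F3 cells expressing wild-type EGFR, del19+T790M+C797S or L858R+T790M+C797S EGFR were treated with compound at 0.1 μM and 1 μM for 24 h. Lysates (30 μg) were analysed by SDS-PAGE and EGFR Western blot, with bands quantified densitometrically.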
# [2] = test system: EGFR^del19+T790M+C797S; test: EGFR protein degradation test (Western blot) in Ba/F3 cells expressing mutant EGFR del19+T790M+C797S (DTC); format: cell-based; conditions: compounds at 0.1 μM and 1 μM, 24 hours, Western blot with EGFR antibody
# Outline: as §1
SMILES,LTC (EGFR^L858R+T790M+C797S) protein degradation [1],DTC (EGFR^del19+T790M+C797S) protein degradation [2]
"COc1cc(N2CCN(CC3CCN(CCOc4cccc5c4C(=O)N(C4CCC(=O)NC4=O)C5=O)CC3)CC2)ccc1Nc1ncc(Cl)c(Nc2ccccc2N(C)S(C)(=O)=O)n1 (centres unmarked) [Compound 57, N-(2-((5-chloro-2-((4-(4-((1-(2-((2-(2,6-dioxopiperidin-3-yl)-1,3-dioxoisoindolin-4-yl)oxy)ethyl)piperidin-4-yl)methyl)piperazin-1-yl)-2-methoxyphenyl)amino)pyrimidin-4-yl)amino)phenyl)-N-methylmethanesulfonamide]",− (Protein degradation < 20%),− (Protein degradation < 20%)
"COc1cc(N2CCC(N3CCN(CCNc4ccc5c(c4)C(=O)N(C4CCC(=O)NC4=O)C5=O)CC3)CC2)ccc1Nc1ncc(Cl)c(Nc2ccccc2N(C)S(C)(=O)=O)n1 (centres unmarked) [Compound 58, N-(2-((5-chloro-2-((4-(4-(4-(2-((2-(2,6-dioxopiperidin-3-yl)-1,3-dioxoisoindolin-5-yl)amino)ethyl)piperazin-1-yl)piperidin-1-yl)-2-methoxyphenyl)amino)pyrimidin-4-yl)amino)phenyl)-N-methylmethanesulfonamide]",+ (Protein degradation 20~80%),− (Protein degradation < 20%)
"COc1cc(N2CCN(CC3CCN(CC4CCN(c5ccc6c(c5)C(=O)N(C5CCC(=O)NC5=O)C6=O)CC4)CC3)CC2)ccc1Nc1ncc(Cl)c(Nc2ccccc2N(C)S(C)(=O)=O)n1 (centres unmarked) [Compound 59, N-(2-((5-chloro-2-((4-(4-((1-((1-(2-(2,6-dioxopiperidin-3-yl)-1,3-dioxoisoindolin-5-yl)piperidin-4-yl)methyl)piperidin-4-yl)methyl)piperazin-1-yl)-2-methoxyphenyl)amino)pyrimidin-4-yl)amino)phenyl)-N-methylmethanesulfonamide]",+ (Protein degradation 20~80%),++ (Protein degradation > 80%)
"COc1cc(N2CCC(N3CCN(CC4CN(c5ccc6c(c5)C(=O)N(C5CCC(=O)NC5=O)C6=O)C4)CC3)CC2)ccc1Nc1ncc(Cl)c(Nc2ccccc2N(C)S(C)(=O)=O)n1 (centres unmarked) [Compound 60, N-(2-((5-chloro-2-((4-(4-(4-((1-(2-(2,6-dioxopiperidin-3-yl)-1,3-dioxoisoindolin-5-yl)azetidin-3-yl)methyl)piperazin-1-yl)piperidin-1-yl)-2-methoxyphenyl)amino)pyrimidin-4-yl)amino)phenyl)-N-methylmethanesulfonamide]",++ (Protein degradation > 80%),− (Protein degradation < 20%)
"COc1cc(N2CCN(CC3CCN(CC4CN(c5ccc6c(c5)C(=O)N(C5CCC(=O)NC5=O)C6=O)C4)CC3)CC2)ccc1Nc1ncc(Cl)c(Nc2ccccc2N(C)S(C)(=O)=O)n1 (centres unmarked) [Compound 61, N-(2-((5-chloro-2-((4-(4-((1-((1-(2-(2,6-dioxopiperidin-3-yl)-1,3-dioxoisoindolin-5-yl)azetidin-3-yl)methyl)piperidin-4-yl)methyl)piperazin-1-yl)-2-methoxyphenyl)amino)pyrimidin-4-yl)amino)phenyl)-N-methylmethanesulfonamide]",+ (Protein degradation 20~80%),− (Protein degradation < 20%)
"COc1cc(N2CCC(CN3CCC(CNc4cccc5c4C(=O)N(C4CCC(=O)NC4=O)C5=O)CC3)CC2)ccc1Nc1ncc(Cl)c(Nc2ccccc2N(C)S(C)(=O)=O)n1 (centres unmarked) [Compound 62, N-(2-((5-chloro-2-((4-(4-((4-(((2-(2,6-dioxopiperidin-3-yl)-1,3-dioxoisoindolin-4-yl)amino)methyl)piperidin-1-yl)methyl)piperidin-1-yl)-2-methoxyphenyl)amino)pyrimidin-4-yl)amino)phenyl)-N-methylmethanesulfonamide]",++ (Protein degradation > 80%),+ (Protein degradation 20~80%)
"COc1cc(N2CCC(CN3CCC(CNc4ccc5c(c4)C(=O)N(C4CCC(=O)NC4=O)C5=O)CC3)CC2)ccc1Nc1ncc(Cl)c(Nc2ccccc2N(C)S(C)(=O)=O)n1 (centres unmarked) [Compound 63, N-(2-((5-chloro-2-((4-(4-((4-(((2-(2,6-dioxopiperidin-3-yl)-1,3-dioxoisoindolin-5-yl)amino)methyl)piperidin-1-yl)methyl)piperidin-1-yl)-2-methoxyphenyl)amino)pyrimidin-4-yl)amino)phenyl)-N-methylmethanesulfonamide]",++ (Protein degradation > 80%),+ (Protein degradation 20~80%)
"COc1cc(N2CCN(CC3CCN(C(=O)CCc4ccc5c(c4)C(=O)N(C4CCC(=O)NC4=O)C5=O)CC3)CC2)ccc1Nc1ncc(Cl)c(Nc2ccccc2N(C)S(C)(=O)=O)n1 (centres unmarked) [Compound 64, N-(2-((5-chloro-2-((4-(4-((1-(3-(2-(2,6-dioxopiperidin-3-yl)-1,3-dioxoisoindolin-5-yl)propanoyl)piperidin-4-yl)methyl)piperazin-1-yl)-2-methoxyphenyl)amino)pyrimidin-4-yl)amino)phenyl)-N-methylmethanesulfonamide]",+ (Protein degradation 20~80%),− (Protein degradation < 20%)
"COc1cc(N2CCN(CC3CCN(C(=O)CNc4ccc5c(c4)C(=O)N(C4CCC(=O)NC4=O)C5=O)CC3)CC2)ccc1Nc1ncc(Cl)c(Nc2ccccc2N(C)S(C)(=O)=O)n1 (centres unmarked) [Compound 66, N-(2-((5-chloro-2-((4-(4-((1-((2-(2,6-dioxopiperidin-3-yl)-1,3-dioxoisoindolin-5-yl)glycyl)piperidin-4-yl)methyl)piperazin-1-yl)-2-methoxyphenyl)amino)pyrimidin-4-yl)amino)phenyl)-N-methylmethanesulfonamide]",++ (Protein degradation > 80%),++ (Protein degradation > 80%)
"COc1cc(N2CCC(CN3CCN(c4ccc5c(c4)C(=O)N(C4CCC(=O)NC4=O)C5=O)CC3)CC2)ccc1Nc1ncc(Cl)c(Nc2ccccc2N(C)S(C)(=O)=O)n1 (centres unmarked) [Compound 67, N-(2-((5-chloro-2-((4-(4-((4-(2-(2,6-dioxopiperidin-3-yl)-1,3-dioxoisoindolin-5-yl)piperazin-1-yl)methyl)piperidin-1-yl)-2-methoxyphenyl)amino)pyrimidin-4-yl)amino)phenyl)-N-methylmethanesulfonamide]",++ (Protein degradation > 80%),− (Protein degradation < 20%)
COc1cc(N2CCN(CC3CCN(c4ccc5c(c4)C(=O)N(C4CCC(=O)NC4=O)C5=O)CC3)CC2)ccc1Nc1ncc(Cl)c(Nc2ccccc2N(C)S(C)(=O)=O)n1 (centres unmarked) [Compound 68],++ (Protein degradation > 80%),+ (Protein degradation 20~80%)
"COc1cc(N2CCC(N3CCN(CC#Cc4ccc5c(c4)C(=O)N(C4CCC(=O)NC4=O)C5=O)CC3)CC2)ccc1Nc1ncc(Cl)c(Nc2ccccc2N(C)S(C)(=O)=O)n1 (centres unmarked) [Compound 72, N-(2-((5-chloro-2-((4-(4-(4-(3-(2-(2,6-dioxopiperidin-3-yl)-1,3-dioxoisoindolin-5-yl)prop-2-yn-1-yl)piperazin-1-yl)piperidin-1-yl)-2-methoxyphenyl)amino)pyrimidin-4-yl)amino)phenyl)-N-methylmethanesulfonamide]",− (Protein degradation < 20%),− (Protein degradation < 20%)
"COc1cc(N2CCN(CC#Cc3ccc4c(c3)C(=O)N(C3CCC(=O)NC3=O)C4=O)CC2)ccc1Nc1ncc(Cl)c(Nc2ccccc2N(C)S(C)(=O)=O)n1 (centres unmarked) [Compound 73, N-(2-((5-chloro-2-((4-(4-(3-(2-(2,6-dioxopiperidin-3-yl)-1,3-dioxoisoindolin-5-yl)prop-2-yn-1-yl)piperazin-1-yl)-2-methoxyphenyl)amino)pyrimidin-4-yl)amino)phenyl)-N-methylmethanesulfonamide]",− (Protein degradation < 20%),− (Protein degradation < 20%)
